Test results published in ChEMBL document CHEMBL1138016, “Azaadamantane benzamide 5-HT4 agonists: gastrointestinal prokinetic SC-54750” (Bioorg Med Chem Lett, 2004).

What was measured:
[1] = biological target: Serotonin 2 (5-HT2) receptor (Homo sapiens, UniProt P41595+P28223+P28335); format: protein assay
[2] = Effective dose required towards 5-hydroxytryptamine 4 receptor as agonism in rat tunica muscularis mucosae (TMM)
[3] = Concentration required for inhibition of Dopamine receptor D2 using [3H]spiperone as the radioligand
[4] = Concentration required for inhibition of 5-hydroxytryptamine 1 receptor using [3H]-5-HT as the radioligand
[5] = Concentration required for inhibition of Dopamine receptor D1 using [3H]SCH-23,390 as the radioligand
[6] = Concentration required for inhibition of 5-hydroxytryptamine 3 receptor using [3H]GR-65630 as the radioligand
Adrenergic receptor beta = Adrenergic receptor beta (Homo sapiens, UniProt P08588+P07550+P13945); assay: Concentration required for inhibition of beta adrenergic receptor; format: protein assay
[7] = biological target: T1, Adrenergic receptor alpha-2 (Homo sapiens, UniProt P08913+P18825+P18089); assay: Concentration required for inhibition of alpha-2 adrenergic receptor; format: protein assay
T1 sequence (P08913 whole entry): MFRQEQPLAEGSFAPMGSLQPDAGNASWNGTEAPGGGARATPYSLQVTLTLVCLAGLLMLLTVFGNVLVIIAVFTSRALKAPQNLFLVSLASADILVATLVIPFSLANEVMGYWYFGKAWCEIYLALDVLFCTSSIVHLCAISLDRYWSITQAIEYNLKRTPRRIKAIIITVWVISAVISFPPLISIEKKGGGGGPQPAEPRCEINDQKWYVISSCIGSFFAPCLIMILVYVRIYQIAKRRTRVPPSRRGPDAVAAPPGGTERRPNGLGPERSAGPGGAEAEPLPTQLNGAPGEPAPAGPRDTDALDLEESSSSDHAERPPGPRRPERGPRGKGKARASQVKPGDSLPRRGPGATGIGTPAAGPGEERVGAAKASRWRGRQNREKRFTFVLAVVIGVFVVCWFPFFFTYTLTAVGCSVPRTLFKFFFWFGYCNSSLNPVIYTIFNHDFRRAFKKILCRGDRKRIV
T1 sequence (P18825 whole entry): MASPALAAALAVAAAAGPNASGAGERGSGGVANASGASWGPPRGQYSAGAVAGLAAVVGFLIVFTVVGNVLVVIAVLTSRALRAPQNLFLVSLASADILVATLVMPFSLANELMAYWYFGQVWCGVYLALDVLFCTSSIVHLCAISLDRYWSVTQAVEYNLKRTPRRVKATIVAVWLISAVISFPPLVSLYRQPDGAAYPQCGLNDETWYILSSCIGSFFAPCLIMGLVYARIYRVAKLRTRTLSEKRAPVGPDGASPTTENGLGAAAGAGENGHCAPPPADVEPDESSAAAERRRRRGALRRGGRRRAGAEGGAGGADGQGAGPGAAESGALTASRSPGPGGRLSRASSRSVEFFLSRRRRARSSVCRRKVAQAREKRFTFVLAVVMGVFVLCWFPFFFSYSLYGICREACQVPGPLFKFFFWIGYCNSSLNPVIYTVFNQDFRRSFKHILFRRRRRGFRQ
T1 sequence (P18089 whole entry): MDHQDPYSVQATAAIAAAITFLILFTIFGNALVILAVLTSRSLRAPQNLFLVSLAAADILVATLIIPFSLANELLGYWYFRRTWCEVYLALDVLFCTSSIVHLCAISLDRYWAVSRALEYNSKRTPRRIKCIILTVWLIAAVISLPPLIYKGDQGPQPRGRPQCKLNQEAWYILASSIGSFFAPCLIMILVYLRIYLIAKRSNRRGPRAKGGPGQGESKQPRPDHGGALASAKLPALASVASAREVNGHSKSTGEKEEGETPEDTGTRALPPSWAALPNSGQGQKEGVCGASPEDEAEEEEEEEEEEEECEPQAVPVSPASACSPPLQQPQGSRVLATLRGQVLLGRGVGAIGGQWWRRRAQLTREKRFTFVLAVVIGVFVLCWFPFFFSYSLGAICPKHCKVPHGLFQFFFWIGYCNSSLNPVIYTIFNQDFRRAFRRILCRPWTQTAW

[8] = biological target: T2, Adrenergic receptor alpha-1 (Homo sapiens, UniProt P35348+P25100+P35368); assay: Concentration required for inhibition of alpha-1 adrenergic receptor using [3H]prazosin as the radioligand; format: protein assay
T2 sequence (P35348 whole entry): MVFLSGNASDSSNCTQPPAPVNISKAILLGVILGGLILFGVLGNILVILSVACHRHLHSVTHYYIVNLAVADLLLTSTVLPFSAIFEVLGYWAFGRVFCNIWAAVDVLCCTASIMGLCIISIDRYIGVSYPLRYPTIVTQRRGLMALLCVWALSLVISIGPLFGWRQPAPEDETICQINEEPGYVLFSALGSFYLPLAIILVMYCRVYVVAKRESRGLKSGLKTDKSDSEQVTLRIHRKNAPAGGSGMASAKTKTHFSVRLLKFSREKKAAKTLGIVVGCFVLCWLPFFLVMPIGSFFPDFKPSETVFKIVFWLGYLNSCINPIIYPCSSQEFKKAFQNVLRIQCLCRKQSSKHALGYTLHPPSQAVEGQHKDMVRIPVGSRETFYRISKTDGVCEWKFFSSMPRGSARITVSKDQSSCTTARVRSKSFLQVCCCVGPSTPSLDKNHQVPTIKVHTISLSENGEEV
T2 sequence (P25100 whole entry): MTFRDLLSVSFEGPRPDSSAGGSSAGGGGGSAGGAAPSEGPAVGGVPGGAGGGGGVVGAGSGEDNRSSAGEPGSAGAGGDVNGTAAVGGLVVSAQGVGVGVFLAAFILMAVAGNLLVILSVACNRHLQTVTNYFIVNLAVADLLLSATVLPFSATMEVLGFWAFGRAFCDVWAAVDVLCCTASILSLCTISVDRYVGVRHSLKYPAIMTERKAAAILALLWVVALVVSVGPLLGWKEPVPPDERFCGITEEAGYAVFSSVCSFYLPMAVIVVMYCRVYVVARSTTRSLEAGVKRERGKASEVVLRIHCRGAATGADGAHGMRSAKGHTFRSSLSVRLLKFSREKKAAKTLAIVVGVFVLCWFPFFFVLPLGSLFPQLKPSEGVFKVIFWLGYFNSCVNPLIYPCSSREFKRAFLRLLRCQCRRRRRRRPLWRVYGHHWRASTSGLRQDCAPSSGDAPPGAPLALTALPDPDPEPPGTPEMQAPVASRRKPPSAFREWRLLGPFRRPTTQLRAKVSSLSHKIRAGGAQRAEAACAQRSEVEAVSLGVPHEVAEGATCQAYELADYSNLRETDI
T2 sequence (P35368 whole entry): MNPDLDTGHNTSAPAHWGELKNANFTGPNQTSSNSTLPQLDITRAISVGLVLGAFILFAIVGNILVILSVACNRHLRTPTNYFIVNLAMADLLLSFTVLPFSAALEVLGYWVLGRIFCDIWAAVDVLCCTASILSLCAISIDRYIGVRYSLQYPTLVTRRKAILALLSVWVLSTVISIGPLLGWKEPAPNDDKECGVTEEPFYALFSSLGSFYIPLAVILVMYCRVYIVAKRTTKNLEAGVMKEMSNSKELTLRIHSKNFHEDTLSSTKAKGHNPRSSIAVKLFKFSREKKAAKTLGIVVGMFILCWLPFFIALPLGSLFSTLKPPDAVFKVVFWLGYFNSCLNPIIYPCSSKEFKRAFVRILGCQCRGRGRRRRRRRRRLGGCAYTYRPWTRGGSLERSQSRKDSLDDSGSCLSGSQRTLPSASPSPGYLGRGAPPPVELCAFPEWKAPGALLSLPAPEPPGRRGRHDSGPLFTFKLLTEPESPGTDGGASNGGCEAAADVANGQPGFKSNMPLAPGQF

[9] = biological target: T3, Serotonin 3 receptor (5HT3) (Mus musculus) (UniProt Q9JHJ5+P23979); assay: Percent inhibition of 5-hydroxytryptamine 3 receptor after intraperitoneal administration at dose of 10 mpk was determined in mice by Von Bezold-Jarisch reflex assay
T3 sequence (P23979 whole entry, looked up): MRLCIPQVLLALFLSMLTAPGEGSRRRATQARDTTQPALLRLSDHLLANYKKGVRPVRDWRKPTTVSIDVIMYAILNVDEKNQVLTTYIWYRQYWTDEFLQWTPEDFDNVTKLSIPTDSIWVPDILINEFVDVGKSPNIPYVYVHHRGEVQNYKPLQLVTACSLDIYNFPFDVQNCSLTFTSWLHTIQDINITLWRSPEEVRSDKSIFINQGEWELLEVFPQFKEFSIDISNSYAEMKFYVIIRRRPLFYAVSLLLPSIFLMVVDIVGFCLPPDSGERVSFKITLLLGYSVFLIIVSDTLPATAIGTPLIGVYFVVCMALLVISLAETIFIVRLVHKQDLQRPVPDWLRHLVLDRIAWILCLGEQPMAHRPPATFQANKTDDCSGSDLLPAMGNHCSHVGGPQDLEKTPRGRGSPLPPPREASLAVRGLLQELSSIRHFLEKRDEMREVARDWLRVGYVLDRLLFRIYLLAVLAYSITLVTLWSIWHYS
T3 sequence (Q9JHJ5 whole entry, looked up): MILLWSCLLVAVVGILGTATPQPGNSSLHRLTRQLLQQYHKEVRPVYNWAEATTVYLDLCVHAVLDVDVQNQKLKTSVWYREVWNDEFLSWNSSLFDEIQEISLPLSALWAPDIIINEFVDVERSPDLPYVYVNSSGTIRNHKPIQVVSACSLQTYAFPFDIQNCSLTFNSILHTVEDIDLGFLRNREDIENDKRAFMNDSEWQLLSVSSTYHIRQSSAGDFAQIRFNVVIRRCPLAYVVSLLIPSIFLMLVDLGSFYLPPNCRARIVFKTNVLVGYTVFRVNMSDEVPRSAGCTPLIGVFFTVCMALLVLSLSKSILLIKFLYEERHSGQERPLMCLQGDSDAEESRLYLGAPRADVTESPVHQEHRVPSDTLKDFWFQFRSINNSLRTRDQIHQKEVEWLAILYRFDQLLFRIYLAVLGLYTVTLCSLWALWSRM

[10] = biological target: T3, Serotonin 3 receptor (5HT3) (Mus musculus); assay: Percent inhibition of 5-hydroxytryptamine 3 receptor after intraperitoneal administration at dose of 3 mpk was determined in mice by Von Bezold-Jarisch reflex assay
[11] = biological target: T3, Serotonin 3 receptor (5HT3) (Mus musculus); assay: Percent inhibition of 5-hydroxytryptamine 3 receptor after intraperitoneal administration at dose of 0.3 mpk was determined in mice by Von Bezold-Jarisch reflex assay
[12] = biological target: T3, Serotonin 3 receptor (5HT3) (Mus musculus); assay: Percent inhibition of 5-hydroxytryptamine 3 receptor after intraperitoneal administration at dose of 1 mpk was determined in mice by Von Bezold-Jarisch reflex assay
[13] = biological target: T3, Serotonin 3 receptor (5HT3) (Mus musculus); assay: Percent inhibition of 5-hydroxytryptamine 3 receptor after intraperitoneal administration at dose of 0.03 mpk was determined in mice by Von Bezold-Jarisch reflex assay
[14] = biological target: T3, Serotonin 3 receptor (5HT3) (Mus musculus); assay: Percent inhibition of 5-hydroxytryptamine 3 receptor after intraperitoneal administration at dose of 0.1 mpk was determined in mice by Von Bezold-Jarisch reflex assay
[15] = biological target: T3, Serotonin 3 receptor (5HT3) (Mus musculus); assay: Percent inhibition of 5-hydroxytryptamine 3 receptor after intraperitoneal administration at dose of 8 mpk was determined in mice by Von Bezold-Jarisch reflex assay
[16] = biological target: T4, Serotonin 3 (5-HT3) receptor (Rattus norvegicus, UniProt P35563+Q9JJ16); assay: Binding affinity towards 5-hydroxytryptamine 3 receptor using [3H]GR-65630 as the radioligand in male rat cortical tissue; format: protein-complex assay
T4 sequence (P35563 whole entry): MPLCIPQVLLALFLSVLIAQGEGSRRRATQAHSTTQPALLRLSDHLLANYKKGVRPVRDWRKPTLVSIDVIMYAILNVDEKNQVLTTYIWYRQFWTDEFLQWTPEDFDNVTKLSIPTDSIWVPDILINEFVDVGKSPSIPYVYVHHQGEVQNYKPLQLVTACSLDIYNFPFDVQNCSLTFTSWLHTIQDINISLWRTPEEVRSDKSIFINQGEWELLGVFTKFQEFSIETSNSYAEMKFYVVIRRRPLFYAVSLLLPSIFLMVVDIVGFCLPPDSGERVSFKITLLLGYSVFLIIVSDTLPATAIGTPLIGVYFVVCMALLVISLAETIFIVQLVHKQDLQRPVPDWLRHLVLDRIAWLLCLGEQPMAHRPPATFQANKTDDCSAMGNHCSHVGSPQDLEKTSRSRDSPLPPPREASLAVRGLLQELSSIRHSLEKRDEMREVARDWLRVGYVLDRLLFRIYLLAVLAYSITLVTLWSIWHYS
T4 sequence (Q9JJ16 whole entry): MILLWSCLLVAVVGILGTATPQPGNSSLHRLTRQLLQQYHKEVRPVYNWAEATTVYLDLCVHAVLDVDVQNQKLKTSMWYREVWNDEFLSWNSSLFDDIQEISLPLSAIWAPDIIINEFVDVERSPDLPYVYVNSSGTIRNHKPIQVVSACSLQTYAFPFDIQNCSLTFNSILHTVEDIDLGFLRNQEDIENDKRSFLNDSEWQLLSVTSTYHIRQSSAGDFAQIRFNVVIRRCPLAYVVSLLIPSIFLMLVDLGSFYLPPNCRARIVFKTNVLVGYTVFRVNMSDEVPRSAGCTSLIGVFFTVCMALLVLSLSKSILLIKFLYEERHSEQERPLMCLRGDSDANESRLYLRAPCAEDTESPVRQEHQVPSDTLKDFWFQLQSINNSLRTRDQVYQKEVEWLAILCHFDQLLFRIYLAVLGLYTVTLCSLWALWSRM

## COc1cc(N)c(Cl)cc1C(=O)N[C@@H]1C2CC3CN(C2)CC31 (stereo not given in full)
[1]
  IC50: > 10000 nM
[2]
  ED50: 51.3 nM
[3]
  IC50: > 10000 nM
[4]
  IC50: > 10000 nM
[5]
  IC50: > 10000 nM
[6]
  IC50: 2.3 nM
Adrenergic receptor beta
  IC50: > 10000 nM
[7]
  IC50: > 10000 nM
[8]
  IC50: > 10000 nM

## COc1cc(N)c(Cl)cc1C(=O)NC1C2CC3CC1CN(C3)C2 (stereo in doubt; 9a)
[2]
  ED50: 538 nM
[9]
  inhibition: 85%
[10]
  inhibition: 0%

## COc1cc(N)c(Cl)cc1C(=O)NC1C2CC3CC1CN(C3)C2 (stereo in doubt; 9b)
[2]
  ED50: 262 nM
[9]
  inhibition: 86%
[11]
  inhibition: 70%
[12]
  inhibition: 75%
[13]
  inhibition: 61%
[14]
  inhibition: 64%
[10]
  inhibition: 81%

## COc1cc(N)c(Cl)cc1C(=O)NCC1C2CC3CC1CN(C3)C2 (stereo in doubt; 9c)
[15]
  inhibition: 82%
[9]
  inhibition: 88%
[11]
  inhibition: 75%
[12]
  inhibition: 82%
[13]
  inhibition: 0%
[14]
  inhibition: 60%

## COc1cc(N)c(Cl)cc1C(=O)NCC1C2CC3CC1CN(C3)C2 (stereo in doubt; 9d) [listing 1 of 2 here]
[6]
  IC50: 11 nM
[16]
  Ki: 144 nM

## COc1cc(N)c(Cl)cc1C(=O)NCC1C2CC3CC1CN(C3)C2 (stereo in doubt; 9d) [listing 2 of 2 here]
[9]
  inhibition: 85%
[12]
  inhibition: 0%
[10]
  inhibition: 82%

## COc1cc(N)c(Cl)cc1C(=O)NC1CCN(CCCOc2ccc(F)cc2)CC1OC (stereo not given) [CISAPRIDE]
[2]
  ED50: 54.7 nM
[4]
  IC50: > 10000 nM
[5]
  IC50: 1700 nM
Adrenergic receptor beta
  IC50: > 10000 nM
[8]
  IC50: 30 nM
